How the values were obtained:
various kinases = target: T1, various kinases (Homo sapiens, UniProt P33981); assay: LanthaScreen Eu Kinase Binding Assay, panel of 486 biochemical kinase assays; details: kinase TTK; LanthaScreen Binding
T1 sequence (P33981 1-857): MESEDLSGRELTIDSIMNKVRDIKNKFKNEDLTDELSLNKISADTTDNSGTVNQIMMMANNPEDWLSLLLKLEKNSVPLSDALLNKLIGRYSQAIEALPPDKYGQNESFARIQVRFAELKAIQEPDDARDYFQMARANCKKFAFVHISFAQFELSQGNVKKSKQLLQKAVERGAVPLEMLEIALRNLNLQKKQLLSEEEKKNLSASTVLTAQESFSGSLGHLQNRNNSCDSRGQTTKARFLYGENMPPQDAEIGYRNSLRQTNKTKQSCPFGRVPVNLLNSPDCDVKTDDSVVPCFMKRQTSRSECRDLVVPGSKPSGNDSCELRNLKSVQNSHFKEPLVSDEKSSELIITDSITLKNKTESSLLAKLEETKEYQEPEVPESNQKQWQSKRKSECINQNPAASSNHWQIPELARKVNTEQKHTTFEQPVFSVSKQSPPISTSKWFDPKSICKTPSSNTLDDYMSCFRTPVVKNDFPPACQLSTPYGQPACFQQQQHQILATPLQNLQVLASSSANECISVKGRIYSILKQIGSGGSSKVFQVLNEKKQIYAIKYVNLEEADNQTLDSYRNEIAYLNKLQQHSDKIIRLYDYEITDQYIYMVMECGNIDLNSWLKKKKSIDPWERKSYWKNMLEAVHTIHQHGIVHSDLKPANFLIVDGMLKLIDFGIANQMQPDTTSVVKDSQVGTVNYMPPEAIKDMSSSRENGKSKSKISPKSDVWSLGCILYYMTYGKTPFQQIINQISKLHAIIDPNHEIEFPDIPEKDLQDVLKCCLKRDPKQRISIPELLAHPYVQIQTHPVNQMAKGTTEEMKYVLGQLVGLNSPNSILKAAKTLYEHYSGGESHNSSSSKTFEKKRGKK

[1] = system: BT-12 AT/RT orthotopic xenografts; assay: Intracranial AT/RT xenograft tumors; type: in vivo, athymic mice
Excerpt: Six-week-old female athymic mice (rnu/rnu genotype, BALB/c background) were purchased from Envigo (Harlan) and housed under aseptic conditions, which included filtered air and sterilized food, water, bedding, and cages. The Northwestern University Institutional Animal Care and Use Committee approved all animal protocols. The BT-12 AT/RT cell line, which has high expression of PLK4 was modified to express luciferase and injected intracranially in nude mice as previously described. Each mouse was injected with a cell suspension (10,000 cells/3μL) into the right caudate putamen of the brain. […] Bioluminescence monitoring was performed twice a week throughout the course of the experiment for quantitative measurement of tumor growth and response to therapy. Kaplan-Meier survival analysis was performed to assess survival benefit within the treatment group as compared to controls. Differences between survival curves were calculated using a log-rank test. Brains were resected at 6 hours following completion of the treatment and placed in 4% paraformaldehyde for subsequent histological examination.

MON cells = assay: Viability assay (Presto Blue), MON; type: cell-based; details: Homo sapiens, dose-response 1nM to 10μM
Description: Except DAOY and D283, all cell lines were plated with 2 x 10^3 cells per well 96-well and the absorbance was measured after 48 and 72 hours at drug concentrations of 5, 10, 50, 100, 200, 500nM, 1μM and 5μM.

MON rhabdoid cells = assay: Immunofluorescence for gamma-tubulin (centriole number), MON; type: cell-based, human; details: 48 hours
Description: The cells were then blocked in blocking buffer (5% BSA (Jackson Immuno Research Laboratories Inc., USA) in PBST) for 1 hour at RT. The primary antibody ([…] 1:500, Sigma, USA) diluted in 1% BSA in PBST was then added and incubated at 4°C overnight. Then, the cells were washed with 1X PBS thrice. Secondary antibody (Anti-Rabbit IgG (H+L) F (ab’) 2, 1:500, Sigma, USA) diluted in 1% BSA in PBST was added and incubated at RT for 2 hours. Three time washes with 1X PBS were performed. Then, 1mL of DAPI (Thermo Fisher Scientific, USA) in PBS (0.5μl of DAPI in 10 ml PBS) was added to the cells and incubated for 10 min at RT. Finally, 3 time washes with 1X PBS were performed and slides were mounted using Mounting Medium (Thermo Fisher Scientific, USA).

[2] = H&E of xenografts, treated vs control, p-value<0.0001

## COc1ccc2c(c1)[C@]1(C[C@H]1c1ccc3c(/C=C/c4ccc(CN5C[C@@H](C)O[C@@H](C)C5)cc4)n[nH]c3c1)C(=O)N2 [CFI-400945]
Various kinases
  % Inhibition Average: 6%
  % Inhibition Duplicate #1: 4%
  % Inhibition Duplicate #2: 7%
[1]; 7.5 mg/kg/day oral for 21 days, p=0.0146
  growth of intracranial AT/RT tumors (luminescence): significantly reduced
[1]; 7.5 mg/kg/day oral for 21 days, p=0.0477, log-rank test
  survival of treated animals: extended
[1]; [2]
  nuclear area FC in tumor cells: 21.67
  nuclear diameter FC in tumor cells: 2.69
MON cells
  IC50: 5.13 µM
MON rhabdoid cells; 100nM
  centrioles' number: slight increase
MON rhabdoid cells; 500nM
  centrioles' number: significant depletion

Source: article PMC5762315, “Inhibition of polo-like kinase 4 (PLK4): a new therapeutic option for rhabdoid tumors and pediatric medulloblastoma” (Oncotarget, 2017)
